# Source: patent publication US5723501A, “Pharmaceutical compositions containing 3-IODO-1,2-propanediol having mucolytic activity” (Carter-Wallace, Inc., priority 1996, dated 1998)
# Several values for one entry are separate records, joined by “and”; a condition that tells them apart may be missing. Identical values can stand only once. Entries after “also recorded” stand apart in the source; their conditions may differ.
# What was measured:
# [1] = tested on: tracheal secretion in mice; details: cited from earlier work
# [2] = tested on: tracheal secretion of phenol red in mice; assay: Tracheal secretion of phenol red in male mice (Engler and Szelenyi method); format: in vivo; details: for ED50: Mus musculus, po, 0.5 h, read-out: ED50 (dose stimulating tracheal secretion of phenol red by 50% over the control); for ED50 / effect on tracheal secretion of phenol red, dose dependence / ED50 (dose stimulating tracheal secretion of phenol red by 50% over the control): 30 minutes; for ED50 / ED50 (dose stimulating tracheal secretion of phenol red by 50% over the control): male mice; for Phenol Red Secretion, Treated: 30 min before phenol red i.p., * P<0.05 vs control; for Phenol Red Secretion, Treated / % Change in phenol red secretion: mean ± SFM; for % Change in phenol red secretion: vs control
# From the text: Adult male mice weighing 14-40 g were used in this investigation. Animals were acclimatized to the laboratory environment for a minimum of five days prior to use in the experimental procedures. Housing was provided in environmentally controlled quarters in which temperature, humidity and ventilation were regulated based on the needs of the species. Husbandry practices and veterinary care were in accordance with the Guide for Care and Use of Laboratory Animals (NIH Publication No. 85-23). Tracheal secretion in mice, expressed by the amount of phenol red dye secreted into the lumen of the trachea was measured according to the method of Engler and Szelenyi. Male mice were randomly placed into appropriate treatment groups. On each experiment day, one to four mice in a group received orally either vehicle (distilled water or 1% acacia, 0.1 mL/10 g body weight) or a drug. Each drug was tested at a minimum of three different dose levels. Each drug dosage was tested in at least six animals. Drugs were administered orally (0.1 mL/10 g body weight) 30 minutes prior to intraperitoneal injection of phenol red (500 mg/kg: 5% solution in physiological saline, 0.1 mL/10 g body weight). Thirty minutes after phenol red injection the animals were sacrificed by exposure to CO2. The whole trachea was carefully excised and washed in 1.0 mL physiological saline for a period of 30 minutes. Subsequently, 0.1 mL of 1 M NaOH was added to the tracheal washings to stabilize the pH of the lavage fluid. The amount of phenol red was measured photometrically at […] in a Beckman Model 25 spectrophotometer. The amount of phenol red secreted in the tracheal lumen, expressed in μg/10 g body weight/hr, was determined by the formula of Graziani and Cazzulani: [formula] where: S=phenol red secreted per 10 g of body weight per hour (μg/10 g/hr). s=intensity of emission of the phenol red contained in 1.0 mL of tracheal lavage as determined from the standard curve of phenol red (0.5, 1, 5, and 10 μg/mL). V=volume of the tracheal lavage (1.0 mL). W=body weight of the mice expressed in grams. The results were expressed as mean ±S.F.M. Statistical significance was evaluated using the t-test for independent means, where P<0.05 is considered to be significant as compared to the appropriate control. The % increase in tracheal secretion of phenol red by each dose of a drug was determined by using the following formula: [formula] T=tracheal secretion of phenol red (μg/10 g/hr) in treated mice each day. C=tracheal secretion of phenol red (μg/10 g/hr) in untreated mice each day. The line of best fit was calculated from the dose response curve of each drug and the ED50 (mg/kg), i.e. the dose stimulating tracheal secretion of phenol red by 50% over the control level, was determined and 95% confidence limits were also calculated.
# [3] = tested on: citric acid (aerosol)-induced coughing responses in guinea pigs; details: cited from earlier work
# [4] = tested on: mechanical or electrical stimulation in the cat; details: cited from earlier work
SMILES,oral ED50 reported earlier by others [1],ED50 ([2]; p.o.) [mg/kg],"Phenol Red Secretion, Treated ([2]; oral dose 0.3 mg/kg) [μg/10 g/hr]",% Change in phenol red secretion ([2]; oral dose 0.3 mg/kg) [%],"Phenol Red Secretion, Treated ([2]; oral dose 1.0 mg/kg) [μg/10 g/hr]",% Change in phenol red secretion ([2]; oral dose 1.0 mg/kg) [%],"stimulation of tracheal secretion of phenol red ([2]; oral, mice)","effect on tracheal secretion of phenol red, dose dependence ([2]; p.o., mice)","Phenol Red Secretion, Treated ([2]; oral dose 50.0 mg/kg) [μg/10 g/hr]",% Change in phenol red secretion ([2]; oral dose 50.0 mg/kg) [%],"Phenol Red Secretion, Treated ([2]; oral dose 100.0 mg/kg) [μg/10 g/hr]",% Change in phenol red secretion ([2]; oral dose 100.0 mg/kg) [%],"Phenol Red Secretion, Treated ([2]; oral dose 200.0 mg/kg) [μg/10 g/hr]",% Change in phenol red secretion ([2]; oral dose 200.0 mg/kg) [%],"Phenol Red Secretion, Treated ([2]; oral dose 10.0 mg/kg) [μg/10 g/hr]",% Change in phenol red secretion ([2]; oral dose 10.0 mg/kg) [%],"Phenol Red Secretion, Treated ([2]; oral dose 30.0 mg/kg) [μg/10 g/hr]",% Change in phenol red secretion ([2]; oral dose 30.0 mg/kg) [%],other results
CC(C)(C)NCC(O)c1ccc(O)c(CO)c1 (stereo not drawn) [Albuterol],about 4 mg/kg,0.18,1.30 ± 0.16,78.4 ± 22.9,1.60 ± 0.09,118.6 ± 11.6,stimulated tracheal secretion of phenol red,dose-dependent increase,–,–,–,–,–,–,–,–,–,–,"Phenol Red Secretion, Treated ([2]; oral dose 0.1 mg/kg): 0.85 ± 0.08 μg/10 g/hr; % Change in phenol red secretion ([2]; oral dose 0.1 mg/kg): 20.5 ± 10.6%"
"[I-].[K+] [Potassium Iodide, potassium iodide]",~4000 mg/kg,–,–,–,–,–,stimulated tracheal secretion of phenol red,dose-dependent increase,0.67 ± 0.07,5.1 ± 11.2,1.47 ± 0.15,45.8 ± 14.2,0.96 ± 0.10,49.1 ± 12.2,–,–,–,–,"ED50 (dose stimulating tracheal secretion of phenol red by 50% over the control) ([2]; p.o.): ~ 200 mg/kg; ED50 (dose stimulating tracheal secretion of phenol red by 50% over the control) ([2]; p.o., listed as potassium iodide): ~ 200 mg/kg and 200 mg/kg"
"OCC(O)CI (stereo not drawn) [3-iodo-1,2-propanediol]",–,0.75,1.02 ± 0.06,37.5 ± 8.01,1.16 ± 0.13,56.55 ± 17.83,stimulates tracheal secretion of phenol red; also recorded: effective in stimulating tracheal secretion of phenol red,dose-dependent increase; also recorded: dose-dependent stimulation,–,–,–,–,–,–,1.32 ± 0.16,77.36 ± 21.67,1.56 ± 0.23,110.45 ± 31.5,"antitussive effect [3]: antitussive effect; antitussive effect [4]: antitussive effect; effectiveness relative to iodinated glycerol in stimulating tracheal secretion of phenol red ([2]; oral, mice, times as effective as iodinated glycerol): about 90 times"
CN(Cc1cc(Br)cc(Br)c1N)C1CCCCC1 [Bromhexine],–,> 100,–,–,–,–,–,weak to moderate nondose-related effect,–,–,0.90 ± 0.10,40.6 ± 17.0,–,–,–,–,0.67 ± 0.10,0 ± 0,"bronchosecretogogue activity reported by others ([1]; 40 mg/kg, p.o., mice): little or no bronchosecretogogue activity; significant increase in phenol red tracheal secretion ([2]; 3 or 30 mg/kg, p.o.): not at 3 or 30 mg/kg; increase in phenol red tracheal secretion ([2]; only at 100 mg/kg, p.o.): significant increase; Phenol Red Secretion, Treated ([2]; oral dose 3.0 mg/kg): 1.20 ± 0.13 μg/10 g/hr; % Change in phenol red secretion ([2]; oral dose 3.0 mg/kg): 20.9 ± 12.9%"
CC(=O)N[C@@H](CS)C(=O)O [N-acetylcysteine],–,61.8,–,–,–,–,–,dose-dependent increase,1.00 ± 0.08,51.6 ± 10.6,–,–,1.30 ± 0.12,75.7 ± 1.5,0.66 ± 0.06,2.3 ± 13.2,–,–,–
